From patent US11040053B2, “Compositions and methods for activating “stimulator of interferon gene”13 dependent signalling” (CHINOOK THERAPEUTICS, INC., priority 2015, dated 2021)

Tests used:
[1] = molecular target: T1, human-STING(E149-S379)H232R protein (Homo sapiens, UniProt Q86WV6, H232R); assay: Surface Plasmon Resonance binding to hSTING WT; conditions: Biacore T200, 15° C., steady-state analysis
T1 construct: His6 (C); made in house; host or cells: E. coli
Protocol: Binding of the mono- and di-F CDN compounds was assessed using Surface Plasmon Resononce to determine a binding constant. An E. coli expression construct (human-STING[E149-S379]H232R) was prepared harboring the protein sequence:
Aliquots were prepared and stored at −80° C. in 30 mM Tris pH 7.5/100 mM NaCl/10% glycerol.
N-terminal avi-tagged human-STING(E149-S379)H232R protein was immobilized (2500 RUs) on a streptavidin chip at 15° C. in a Biacore T200 (GE Healthcare). Titrations of cyclic dinucleotides (CDNs as indicated in Table 6) in 30 mM Tris pH 7.5/50 mM NaCL/0.005% Tween 20/1 mM DTT/2% DMSO, were profiled (30 μLs/min, 180 seconds for sample contact/120 seconds for dissociation) against hSTING at 15° C. Kinetic analysis of the data was performed using Biacore T200 Evaluation software. Steady-state analysis of the data was performed using Graphpad Prism 6.0 software, using one site-specific binding algorithm (Equation is Y=Bmax*X/(Kd+X)).

hSTING HAQ allele = molecular target: T2, hSTING HAQ allele (Homo sapiens, UniProt Q86WV6, G230A/H232R/R293Q/R71H); assay: IRF-3 inducible secreted luciferase reporter in THP1-Dual cells without digitonin; type: cell-based; conditions: for activity relative to OH reference compound, in words: Table 5 comment, THP1 cells without digitonin; for EC50: without digitonin in THP1 cells (HAQ allele)
T2 construct: a human monocyte cell line containing the hSTING HAQ allele; host or cells: THP1-Dual cells
Protocol: After 30 minutes, cells were washed and fresh RPMI media containing 10% FBS was added, and cells were incubated at 37° C. with 5% CO2 Cell culture supernatants from each sample were collected after overnight incubation, and 10 μL of the cell culture supernatants was added to 50 μL QUANTI-Luc reagent (Invivogen). Type I interferon activation was determined by measuring secreted luciferase levels on a SpectraMax M3 spectrophotometer (Molecular Devices). The EC50 value was determined from the dose-response curve for the 10 concentrations from the serial dilution of the reference compounds and compounds of the invention tested in this assay as listed in Table 5.

HAQ allele hSTING = molecular target: T3, HAQ allele hSTING (Homo sapiens, UniProt Q86WV6, G230A/H232R/R293Q); assay: Differential scanning fluorometry (DSF) binding to purified hSTING HAQ allele; conditions: DSF, 1 mg/ml STING AA140-379, ligand 1 mM
T3 construct: DNA encoding amino acids 140-379 (amino acid numbering corresponding to Swiss Prot Q86WV6); 6xHIS (N, cleaved yes); SUMO (N, cleaved yes); made in house; host or cells: Rosetta2 (DE3) E. coli
Protocol: (§1) Cells were grown in lysogeny broth at 37° C. until a […] absorbance of 0.6 was reached. […] Cell pellets were re-suspended on ice in a buffer containing 50 mM Tris hydrochloride (Tris-HCl) pH 7.5, 500 mM sodium chloride (NaCl), 20 mM imidazole, 10% glycerol, 1 mM tris(2-carboxyethyl)phosphine hydrochloride (TCEP) and protease inhibitor tablet (Pierce) (Buffer A). Cells were lysed using an S-450D sonifier (Emmerson industrial) on ice. […] Protein was aliquoted, flash frozen in liquid nitrogen and stored at −80° C. until use.
(§2) The protein is heated in the presence of a dye that binds to and fluoresces in hydrophobic environments. The protein is thermally denatured by heating resulting in increased dye binding to the unfolded protein and fluorescence. The temperature midpoint (Tm) of a proteins denaturation is established by calculating the half maximal value of the denaturation curve. The temperature midpoint of the protein in the presence of a ligand is directly related to the affinity of the ligand for the protein and therefore its ability to stabilize the protein at higher temperatures.
(§3) Samples were placed in hard shell PCR plate (Bio-Rad). The fluorescence as a function of temperature was recorded in a CFX 96 real time PCR machine (Bio-Rad) reading on the HEX channel, excitation 450-490, emission 560-580 nm. The temperature gradient was from 15-80° C. ramping 0.5° C. per 15 seconds and recording every 0.5° C. After subtraction of the background signal from a sample lacking protein and ligand. The midpoint temperature (Tm) was calculated by fitting the curves of the fluorescence as a function of temperature to a Boltzmann sigmoidal function (Graph Pad Prism).

hSTING(WT) = hSTING(WT) (Homo sapiens, UniProt Q86WV6, H232R); assay: Differential scanning fluorometry (DSF) binding to purified hSTING WT; design: DNA encoding amino acids 140-379 (amino acid numbering corresponding to Swiss Prot Q86WV6); 6xHIS (N, cleaved yes); SUMO (N, cleaved yes); made in house; host or cells: Rosetta2 (DE3) E. coli; conditions: DSF, 1 mg/ml STING AA140-379, ligand 1 mM
Protocol: as §1, §2, §3

hSTING(REF) = hSTING(REF) (Homo sapiens, UniProt Q86WV6); assay: Differential scanning fluorometry (DSF) binding to purified hSTING REF allele; design: DNA encoding amino acids 140-379 (amino acid numbering corresponding to Swiss Prot Q86WV6); 6xHIS (N, cleaved yes); SUMO (N, cleaved yes); made in house; host or cells: Rosetta2 (DE3) E. coli; conditions: for hSTING Tm Shift REF: DSF, 1 mg/ml STING AA140-379, ligand 1 mM; for binding relative to OH reference compound, in words: Table 4 comment, REF allele hSTING
Protocol: as §1, §2, §3

T2 sequence (Q86WV6 whole entry R71H/G230A/H232R/R293Q): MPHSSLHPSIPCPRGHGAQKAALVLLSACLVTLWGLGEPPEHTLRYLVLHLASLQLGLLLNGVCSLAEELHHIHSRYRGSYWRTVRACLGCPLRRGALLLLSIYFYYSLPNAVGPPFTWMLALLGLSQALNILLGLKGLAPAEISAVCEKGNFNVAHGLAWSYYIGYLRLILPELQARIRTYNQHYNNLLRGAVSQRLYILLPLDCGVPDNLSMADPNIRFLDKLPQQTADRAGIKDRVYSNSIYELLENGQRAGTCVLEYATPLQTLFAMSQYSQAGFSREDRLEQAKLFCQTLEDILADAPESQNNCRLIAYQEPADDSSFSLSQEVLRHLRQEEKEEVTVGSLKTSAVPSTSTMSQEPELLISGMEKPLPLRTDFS
Sequence of hSTING(REF) (Q86WV6 140-379): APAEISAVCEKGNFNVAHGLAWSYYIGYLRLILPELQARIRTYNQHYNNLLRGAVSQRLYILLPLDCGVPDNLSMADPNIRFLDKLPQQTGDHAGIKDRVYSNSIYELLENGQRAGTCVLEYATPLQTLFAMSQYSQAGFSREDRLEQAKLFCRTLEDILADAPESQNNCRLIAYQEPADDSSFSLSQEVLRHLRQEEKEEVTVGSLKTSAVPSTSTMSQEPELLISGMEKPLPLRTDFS
Sequence of hSTING(WT) (Q86WV6 140-379 H232R): as the sequence (Q86WV6 140-379) above, with H93R counted along it
T1 sequence (Q86WV6 with tags, fused parts or gaps H232R): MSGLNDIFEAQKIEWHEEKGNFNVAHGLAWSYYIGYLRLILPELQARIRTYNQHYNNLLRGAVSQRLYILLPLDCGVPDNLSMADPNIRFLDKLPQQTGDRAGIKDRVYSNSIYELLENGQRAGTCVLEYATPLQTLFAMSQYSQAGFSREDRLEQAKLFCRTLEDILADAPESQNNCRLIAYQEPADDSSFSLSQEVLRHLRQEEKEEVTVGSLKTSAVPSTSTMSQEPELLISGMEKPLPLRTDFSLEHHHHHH
T3 sequence (Q86WV6 140-379 G230A/H232R/R293Q limits assumed): as the sequence (Q86WV6 140-379) above, with G91A, H93R, R154Q counted along it

Row | SMILES | Kd [1] | activity relative to OH reference compound, in words (hSTING HAQ allele) | EC50 (hSTING HAQ allele) | hSTING Tm Shift HAQ (HAQ allele hSTING) | hSTING Tm Shift WT (hSTING(WT)) | hSTING Tm Shift REF (hSTING(REF)) | binding relative to OH reference compound, in words (hSTING(REF))
1 | Nc1ncnc2c1ncn2[C@@H]1O[C@@H]2CO[P@@](=O)(S)O[C@H]3[C@@H](F)[C@H](n4cnc5c(N)ncnc54)O[C@@H]3CO[P@](=O)(S)O[C@H]2[C@H]1F [Compound 6a, (2R,3R,3aR,5R,7aR,9R,10R,10aR,12S,14aR)-2,9-bis(6-amino-9H-purin-9-yl)-3,10-difluoro-5,12-dimercaptooctahydro-2H,7H-difuro [3,2-d:3′,2′-j][1,3,7,9]tetraoxa[2,8]diphosphacyclododecine 5,12-dioxide] | 29 nM | improved activity | 8 µM |  |  |  | 
2 | Nc1nc2c(ncn2[C@@H]2O[C@@H]3CO[P@](=O)(S)O[C@H]4[C@@H](F)[C@H](n5cnc6c(N)ncnc65)O[C@@H]4CO[P@@](=O)(S)O[C@H]3[C@H]2O)c(=O)[nH]1 [Compound 24a, 2-amino-9-((2R,3R,3aS,5R,7aR,9R,10R,10aR,12S,14aR)-9-(6-amino-9H-purin-9-yl)-10-fluoro-3-hydroxy-5,12-dimercapto-5,12-dioxidooctahydro-2H,7H-difuro[3,2-d:3′,2′-j][1,3,7,9]tetraoxa[2,8]diphosphacyclododecin-2-yl)-1,9-dihydro-6H-purin-6-one] | 684 nM |  | 89 µM | 15.3 °C | 9.3 °C | 7.0 °C | 
3 | Nc1ncnc2c1ncn2[C@@H]1O[C@@H]2COP(=O)(O)O[C@H]3[C@@H](F)[C@H](n4cnc5c(N)ncnc54)O[C@@H]3COP(=O)(O)O[C@H]2[C@H]1F [3'3'-(2'F-A)(2'F-A), reference compound] | 11 nM |  |  | 20.6 °C | 12.6 °C | 6.4 °C | 
4 | O=C(Nc1ncnc2c1ncn2[C@@H]1O[C@@H]2CO[P@@](=O)(S)O[C@H]3[C@@H](F)[C@H](n4cnc5c(NC(=O)c6ccccc6)ncnc54)O[C@@H]3CO[P@@](=O)(S)O[C@H]2[C@H]1F)c1ccccc1 [Compound 27, N,N′-(((2R,3R,3aR,5R,7aR,9R,10R,10aR,12R,14aR)-3,10-difluoro-5,12-dimercapto-5,12-dioxidooctahydro-2H,7H-difuro [3,2-d:3′,2′-j][1,3,7,9]tetraoxa[2,8]diphosphacyclododecine-2,9-diyl)bis(9H-purine-9,6-diyl))dibenzamide] |  |  | > 150 µM | 10.1 °C | 8.9 °C | 8.7 °C | improved binding
5 | Nc1nc2c(ncn2[C@@H]2O[C@@H]3CO[P@](=O)(S)O[C@H]4[C@@H](F)[C@H](n5cnc6c(N)ncnc65)O[C@@H]4CO[P@@](=O)(S)O[C@H]3[C@H]2F)c(=O)[nH]1 [Compound 14a, 2-amino-9-((2R,3R,3aR,5R,7aR,9R,10R,10aR,12S,14aR)-9-(6-amino-9H-purin-9-yl)-3,10-difluoro-5,12-dimercapto-5,12-dioxidooctahydro-2H,7H-difuro [3,2-d:3′,2′-j][1,3,7,9]tetraoxa[2,8]diphosphacyclododecin-2-yl)-1,9-dihydro-6H-purin-6-one] | 98 nM | improved activity | 18 µM |  |  |  | 
6 | CC(C)C(=O)Nc1nc2c(ncn2[C@@H]2O[C@@H]3CO[P@@](=O)(S)O[C@H]4[C@@H](F)[C@H](n5cnc6c(NC(=O)c7ccccc7)ncnc65)O[C@@H]4CO[P@@](=O)(S)O[C@H]3[C@H]2F)c(=O)[nH]1 [Compound 25, N-(9-((2R,3R,3aR,5R,7aR,9R,10R,10aR,12R,14aR)-3,10-difluoro-9-(2-isobutyramido-6-oxo-1,6-dihydro-9H-purin-9-yl)-5,12-dimercapto-5,12-dioxidooctahydro-2H,7H-difuro[3,2-d:3′,2′-j][1,3,7,9]tetraoxa[2,8]diphosphacyclododecin-2-yl)-9H-purin-6-yl)benzamide] |  |  | 78 µM | 14.7 °C | 10.6 °C | 8.6 °C | improved binding
7 | Nc1ncnc2c1ncn2[C@@H]1O[C@@H]2CO[P@@](=O)(S)O[C@H]3[C@H](F)[C@H](n4cnc5c(N)ncnc54)O[C@@H]3CO[P@](=O)(S)O[C@H]2[C@@H]1F [Compound 7a, (2R,3 S,3aR,5R,7aR,9R,10S,10aR,12S,14aR)-2,9-bis(6-amino-9H-purin-9-yl)-3,10-difluoro-5,12-dimercaptooctahydro-2H,7H-difuro [3,2-d:3′,2′-j][1,3,7,9]tetraoxa[2,8]diphosphacyclododecine 5,12-dioxide] |  |  | > 150 µM | 3.1 °C | 0.1 °C | 0 °C | 
8 | Nc1nc2c(ncn2[C@@H]2O[C@@H]3CO[P@@](=O)(S)O[C@H]4[C@@H](F)[C@H](n5cnc6c(N)ncnc65)O[C@@H]4CO[P@@](=O)(S)O[C@H]3[C@H]2F)c(=O)[nH]1 [Compound 14, 2-Amino-9-((2R,3R,3aR,5R,7aR,9R,10R,10aR,12R,14aR)-9-(6-amino-9H-purin-9-yl)-3,10-difluoro-5,12-dimercapto-5,12-dioxidooctahydro-2H,7H-difuro [3,2-d:3′,2′-j][1,3,7,9]tetraoxa[2,8]diphosphacyclododecin-2-yl)-1,9-dihydro-6H-purin-6-one] | 93 nM |  | 3 µM | 34.2 °C | 19.3 °C | 12.5 °C | 
